Legend:
[1] = test system: barnyardgrass; experiment: Test A preemergence; assay type: in vivo, Echinochloa crusgalli; conditions: 1000 g ai/ha, 0 to 100 scale (0 no effect, 100 complete control), 10 days
Text: (§1) Seeds of plant species selected from barnyardgrass (Echinochloa crusgalli), blackgrass (Alopecurus myosuroides), corn (Zea mays), foxtail, giant (giant foxtail, Setaria faberi), goosegrass (Eleusine indica), kochia (Bassia scoparia), oat, wild (wild oat, Avena fatua), pigweed, palmer (palmer amaranth, palmer pigweed, Amaranthus palmeri), Pigweed, Redroot (redroot pigweed, Amaranthus retroflexus), ragweed (common ragweed, Ambrosia artemisiifolia), ryegrass, Italian (italian ryegrass, Lolium multiflorum), soybean (Glycine max), and wheat (Triticum aestivum) were planted into a blend of loam soil and sand and treated preemergence with a directed soil spray using test chemicals formulated in a non-phytotoxic solvent mixture which included a surfactant. At the same time, plants selected from these crops and weed species and also galium (catchweed bedstraw, Galium aparine) and horseweed (Erigeron canadensis) were planted in pots containing the same blend of loam soil and sand and treated with postemergence applications of test chemicals formulated in the same manner. Plants ranged in height from 2 to 10 cm and were in the one- to two-leaf stage for the postemergence treatment. Treated plants and untreated controls were maintained in a greenhouse for 10 days, after which time all treated plants were compared to untreated controls and visually evaluated for injury. Plant response ratings, summarized in Table A, are based on a 0 to 100 scale where 0 is no effect and 100 is complete control. A dash (-) response means no test result.

[2] = test system: blackgrass; experiment: Test A preemergence; assay type: in vivo, Alopecurus myosuroides
In short: (§2)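 Loam/sand soil; pre-em directed soil spray at planting, post-em spray at 1–2 leaf (2–10 cm). Compound in non-phytotoxic solvent + surfactant. Greenhouse 10 d; visual injury vs untreated, 0 = no effect, 100 = complete control.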

[3] = test system: foxtail, giant; experiment: Test A preemergence; assay type: in vivo, Setaria faberi
In short: as §2

[4] = test system: kochia; experiment: Test A preemergence; assay type: in vivo, Bassia scoparia
In short: as §2

[5] = test system: pigweed, palmer; experiment: Test A preemergence; assay type: in vivo, Amaranthus palmeri
In short: as §2

[6] = test system: ragweed; experiment: Test A preemergence; assay type: in vivo, Ambrosia artemisiifolia
In short: as §2

[7] = test system: ryegrass, Italian; experiment: Test A preemergence; assay type: in vivo, Lolium multiflorum
In short: as §2

[8] = test system: barnyardgrass; experiment: Test A postemergence; assay type: in vivo, Echinochloa crusgalli; conditions: 1000 g ai/ha, Postemergence; 0 to 100 scale
Text: as §1

[9] = test system: blackgrass; experiment: Test A postemergence; assay type: in vivo, Alopecurus myosuroides
In short: as §2

[10] = test system: foxtail, giant; experiment: Test A postemergence; assay type: in vivo, Setaria faberi
In short: as §2

[11] = test system: kochia; experiment: Test A postemergence; assay type: in vivo, Bassia scoparia
In short: as §2

[12] = test system: pigweed, palmer; experiment: Test A postemergence; assay type: in vivo, Amaranthus palmeri
In short: as §2

[13] = test system: ragweed; experiment: Test A postemergence; assay type: in vivo, Ambrosia artemisiifolia
In short: as §2

[14] = test system: ryegrass, Italian; experiment: Test A postemergence; assay type: in vivo, Lolium multiflorum
In short: as §2

[15] = test system: galium; experiment: Test A postemergence; assay type: in vivo, Galium aparine
In short: as §2

[16] = test system: horseweed; experiment: Test A postemergence; assay type: in vivo, Erigeron canadensis
In short: as §2

[17] = test system: corn; experiment: Test A preemergence; assay type: in vivo, Zea mays
In short: as §2

[18] = test system: goosegrass; experiment: Test A preemergence; assay type: in vivo, Eleusine indica
In short: as §2

[19] = test system: oat, wild; experiment: Test A preemergence; assay type: in vivo, Avena fatua
In short: as §2

[20] = test system: soybean; experiment: Test A preemergence; assay type: in vivo, Glycine max
In short: as §2

[21] = test system: wheat; experiment: Test A preemergence; assay type: in vivo, Triticum aestivum
In short: as §2

[22] = test system: corn; experiment: Test A postemergence; assay type: in vivo, Zea mays
In short: as §2

[23] = test system: goosegrass; experiment: Test A postemergence; assay type: in vivo, Eleusine indica
In short: as §2

[24] = test system: oat, wild; experiment: Test A postemergence; assay type: in vivo, Avena fatua
In short: as §2

[25] = test system: soybean; experiment: Test A postemergence; assay type: in vivo, Glycine max
In short: as §2

[26] = test system: wheat; experiment: Test A postemergence; assay type: in vivo, Triticum aestivum
In short: as §2

[27] = test system: barnyardgrass; experiment: Test B flooded paddy test; assay type: in vivo, Echinochloa crus-galli; conditions: 250 g ai/ha, Flood, 13 days, 0 to 100 scale (0 no effect, 100 complete control)
In short: (§3)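 Percent weed or crop control, judged by eye on a 0–100 scale 13 days post-treatment, reflects compound added to a 3 cm flood maintained over 2-leaf plants in the greenhouse. Missing entries are marked with a dash.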

[28] = test system: ducksalad; experiment: Test B flooded paddy test; assay type: in vivo, Heteranthera limosa; conditions: 250 g ai/ha, Flood, 13 days, 0 to 100 scale (0 no effect, 100 complete control)
In short: as §3

[29] = test system: rice; experiment: Test B flooded paddy test; assay type: in vivo, Oryza sativa; conditions: 250 g ai/ha, Flood, 13 days, 0 to 100 scale (0 no effect, 100 complete control)
In short: as §3

[30] = test system: sedge, umbrella; experiment: Test B flooded paddy test; assay type: in vivo, Cyperus difformis; conditions: 250 g ai/ha, Flood, 13 days, 0 to 100 scale (0 no effect, 100 complete control)
In short: as §3

[31] = 1000 g ai/ha, 0 to 100 scale (0 no effect, 100 complete control), 10 days
[32] = 1000 g ai/ha, Postemergence, 0 to 100 scale
[33] = 125 g ai/ha, visual injury after 10 days, 0 to 100 scale, 0 is no effect, 100 is complete control
[34] = 500 g ai/ha, 0 to 100 scale (0 no effect, 100 complete control), 10 days
[35] = 125 g ai/ha, postemergence, 10 days, visual injury, 0 to 100 scale (0 no effect, 100 complete control)
[36] = 500 g ai/ha, Postemergence, 0 to 100 scale

Cc1cccc2c1O[C@@H](C)CN2C(=O)c1cccc(-n2cc(C(F)(F)F)cn2)c1 [Compound 130]
10: Plant response rating, Barnyardgrass [1] | Plant response rating, Blackgrass [2, 31]
0: Plant response rating, Foxtail, Giant [3, 31] | Plant response rating, Kochia [4, 31] | Plant response rating, Pigweed, Palmer [5, 31] | Plant response rating, Ragweed [6, 31] | Plant response rating, Ryegrass, Italian [7, 31] | Plant response rating, Barnyardgrass [8] | Plant response rating, Blackgrass [9, 32] | Plant response rating, Foxtail, Giant [10, 32] | Plant response rating, Kochia [11, 32] | Plant response rating, Pigweed, Palmer [12, 32] | Plant response rating, Ragweed [13, 32] | Plant response rating, Ryegrass, Italian [14, 32] | Plant response rating, Galium [15, 32] | Plant response rating, Horseweed [16, 32]

Cc1cccc2c1O[C@@H](C)CN2C(=O)c1cccc(-n2cc(F)cn2)c1 [Compound 131]
0: Plant response rating, Kochia [4, 31] | Plant response rating, Pigweed, Palmer [5, 31] | Plant response rating, Ragweed [6, 31] | Plant response rating, Blackgrass [9, 32] | Plant response rating, Pigweed, Palmer [12, 32] | Plant response rating, Ragweed [13, 32] | Plant response rating, Ryegrass, Italian [14, 32] | Plant response rating, Horseweed [16, 32]
40: Plant response rating, Kochia [11, 32]
60: Plant response rating, Foxtail, Giant [3, 31] | Plant response rating, Ryegrass, Italian [7, 31]
10: Plant response rating, Barnyardgrass [1] | Plant response rating, Blackgrass [2, 31] | Plant response rating, Barnyardgrass [8] | Plant response rating, Foxtail, Giant [10, 32]
20: Plant response rating, Galium [15, 32]

CCOC(=O)c1cnn(-c2cccc(C(=O)N3C[C@H](C)Oc4c(C)cccc43)c2)c1 [Compound 133]
70: Plant response rating, Ryegrass, Italian [7, 31]
0: Plant response rating, Blackgrass [2, 31] | Plant response rating, Kochia [4, 31] | Plant response rating, Blackgrass [9, 32] | Plant response rating, Horseweed [16, 32]
60: Plant response rating, Barnyardgrass [1] | Plant response rating, Ryegrass, Italian [14, 32] | Plant response rating, Galium [15, 32]
30: Plant response rating, Ragweed [6, 31] | Plant response rating, Foxtail, Giant [10, 32] | Plant response rating, Pigweed, Palmer [12, 32]
40: Plant response rating, Pigweed, Palmer [5, 31] | Plant response rating, Kochia [11, 32] | Plant response rating, Ragweed [13, 32]
80: Plant response rating, Foxtail, Giant [3, 31]
20: Plant response rating, Barnyardgrass [8]

Cc1cccc2c1O[C@@H](C)CN2C(=O)c1cccc(-n2cc(C#N)cn2)c1 [Compound 134]
50: Plant response rating, Ragweed [6, 31] | Plant response rating, Foxtail, Giant [10, 32] | Plant response rating, Kochia [11, 32]
20: Plant response rating, Kochia [4, 31] | Plant response rating, Ryegrass, Italian [14, 32] | Plant response rating, Galium [15, 32]
10: Plant response rating, Barnyardgrass [8]
70: Plant response rating, Foxtail, Giant [3, 31]
0: Plant response rating, Blackgrass [9, 32] | Plant response rating, Ragweed [13, 32] | Plant response rating, Horseweed [16, 32]
30: Plant response rating, Barnyardgrass [1] | Plant response rating, Pigweed, Palmer [12, 32]
40: Plant response rating, Blackgrass [2, 31]
90: Plant response rating, Pigweed, Palmer [5, 31]
80: Plant response rating, Ryegrass, Italian [7, 31]

CC1CN(C(=O)c2cccc(-n3cncn3)c2)c2c(F)cccc2O1 (centres unmarked) [Compound 28]
80: Plant response rating, Goosegrass [18, 34] | Plant response rating, Blackgrass [9, 36] | Plant response rating, Ducksalad [28]
0: Plant response rating, Blackgrass [2, 33] | Plant response rating, Corn [17, 33] | Plant response rating, Kochia [4, 33] | Plant response rating, Oat, Wild [19, 33] | Plant response rating, Oat, Wild [19, 34] | Plant response rating, Pigweed, Palmer [5, 33] | Plant response rating, Ragweed [6, 33] | Plant response rating, Soybean [20, 33] | Plant response rating, Soybean [20, 34] | Plant response rating, Wheat [21, 33] | Plant response rating, Corn [22, 35] | Plant response rating, Foxtail, Giant [10, 35] | Plant response rating, Goosegrass [23, 35] | Plant response rating, Kochia [11, 35] | Plant response rating, Pigweed, Palmer [12, 35] | Plant response rating, Ragweed [13, 35] | Plant response rating, Ragweed [13, 36] | Plant response rating, Ryegrass, Italian [14, 35] | Plant response rating, Horseweed [16, 35] | Plant response rating, Horseweed [16, 36] | Plant response rating, Rice [29] | Plant response rating, Sedge, Umbrella [30]
50: Plant response rating, Pigweed, Palmer [5, 34] | Plant response rating, Goosegrass [23, 36] | Plant response rating, Galium [15, 35] | Plant response rating, Galium [15, 36]
40: Plant response rating, Ryegrass, Italian [7, 33]
90: Plant response rating, Foxtail, Giant [3, 34] | Plant response rating, Ryegrass, Italian [7, 34] | Plant response rating, Soybean [25, 35] | Plant response rating, Soybean [25, 36]
10: Plant response rating, Wheat [21, 34] | Plant response rating, Wheat [26, 35] | Plant response rating, Barnyardgrass [27]
30: Plant response rating, Corn [17, 34] | Plant response rating, Foxtail, Giant [3, 33] | Plant response rating, Blackgrass [9, 35] | Plant response rating, Oat, Wild [24, 36] | Plant response rating, Wheat [26, 36]
60: Plant response rating, Blackgrass [2, 34]
20: Plant response rating, Goosegrass [18, 33] | Plant response rating, Kochia [4, 34] | Plant response rating, Ragweed [6, 34] | Plant response rating, Corn [22, 36] | Plant response rating, Kochia [11, 36] | Plant response rating, Oat, Wild [24, 35] | Plant response rating, Pigweed, Palmer [12, 36]
70: Plant response rating, Foxtail, Giant [10, 36] | Plant response rating, Ryegrass, Italian [14, 36]

From patent US20260262643A1, “HERBICIDAL BENZOXAZINES” (FMC CORPORATION, priority 2022, published 2026)
